# From patent US5321037A, “Isoxazole derivatives for use as cerebro-active drugs and central muscle relaxants” (Sankyo Company, Limited, priority 1986, dated 1994)
# Where a name gives a salt, the structure may show the parent alone. Read-outs that look alike come from different tables or passages of the source.
# Experiments:
# [1] = test system: decerebrate rigidity in rats; experiment: Suppression of decerebrate rigidity in rats; format: in vivo, rat
# Excerpt: The suppression of decerebrate rigidity in laboratory animals, such as rats, is a well known model for control of human spasticity and/or rigidity.
# In the test method, a rat was anesthetized with halothane and fixed on a stereotaxic apparatus (SR-5, Narishige). In accordance with the brain atlas by Pellegrino et al., [L. J. Pellegrino, A. S. Pellegrino & A. J. Cushman: A Stereotaxic Atlas of the Rat Brain, Plenum Press, New York and London (1967)], an electrode 0.7 mm in diameter, which was insulated except for 1 mm at the tip, was inserted bilaterally into the midbrain reticular formation (AP: 0, L: ±1.5, H: -3.0). A clip serving as the reference electrode was fixed on the temporal muscle. Through these electrodes, a high frequency electric current (100 KHz, 10 to 20 mA) was applied from a lesion generator (Glass Co., LM4A) for 2 to 3 minutes to cauterize electrically this brain region.
# The rat was then immediately set free from the stereotaxic apparatus. A polyethylene cannula was inserted into the duodenum and fixed with an acrylic resin (Aron Alfa, Sankyo Co., Ltd.). After completion of these operations, halothane anesthesia was immediately discontinued.
# After 1.5 hours, when the animal awoke from the anesthesia, the rat was fixed on an apparatus devised in our laboratory for a hind leg fixation. Both hind legs were fixed at the anterior part of the ankle joints. Both hindlimb paws were then pushed in 4 mm for 6 seconds in every minute. The resulting repulsive tension was drawn on a polygraph through a strain gauge.
# The test compounds were suspended in a 0.5% w/v CMC (carboxymethyl cellulose) aqueous solution and were administered orally (p.o.) or intraperitoneally (i.p.).
# The results are summarized in the following Table 7, where the compounds of the present invention are identified by the number of the foregoing Example in which each was prepared, Compound X is the known compound eperisone hydrochloride, and Compound Y is the known compound afloqualone.
# [2] = test system: ischemia-induced neurological symptoms in SHR SP; experiment: Improvement in ischemia-induced neurological symptoms in Spontaneously Hypertensive Rats Stroke Prone (SHR SP) caused by ligation of the bilateral common carotid arteries; format: in vivo, rat (SHR SP)
# Experimental: The test animals employed were male adult SHR SPs (13 or 15 weeks old). They were used in groups each consisting of about 10 animals. Under halothane anesthesia, both common carotid arteries of each animal were ligated to prepare a brain ischemia model. The halothane anesthesia was stopped immediately after the ligation, and then the time taken to recover the righting reflex, the onset time of convulsions and the survival time were determined. The test solution was prepared in the same manner as described in Experiment 1 and was administered to the animal intraperitoneally 30 minutes before the ligation. A 0.5% CMC solution was administered to the control group in the same manner. The statistical analysis was carried out in a similar manner to that in Experiment 1. The statistical analysis of the survival rate was carried out by the X^2 test.
# [3] = test system: survival time under hypoxic conditions; experiment: Effect on survival time under hypoxic conditions; format: in vivo, mouse (ddY strain); conditions: 4% oxygen, 96% nitrogen
# Excerpt: The test animals employed were male adult mice (5 weeks old and about 30 g body weight) of the ddY strain. The animals were employed in groups, each containing from 7 to 17 animals. Each animal was given intraperitoneally a test compound in suspension (as in the preceding Experiments). Thirty (30) minutes after this administration, 2 or 3 animals were placed in a 1.5 liter gas chamber made of acrylate resin, and a mixture of 4% by volume oxygen and 96% nitrogen was supplied at the rate of 10 liters/minute. The time of death of the animal was measured (determined by the cessation of respiration).
# [4] = test system: decerebrate rigidity (cats); experiment: Suppression of decerebrate rigidity (cats); format: in vivo, cat
# Excerpt: Adult cats each weight 3.0 to 4.5 kg were used. Under ether anesthesia, the trachea was cannulated and the common carotid arteries were ligated at both sides. The cat was decerebrated by suction at the precollicular level. Ether anesthesia was then immediately discontinued. A pair of needle electrodes was inserted into the neck muscle in order to pick up any EMG muscular discharges. The EMG discharge was amplified and recorded on a pen-writing recorder, along with an integration of the EMG discharge. Recording was started at least 2 hours after withdrawal of anesthesia. Blood pressure induced from the femoral artery, as well as body temperature and heart beat, were recorded and monitored throughout the experiment.
# After stable EMG discharges were obtained, the test compounds suspended in 0.5% CMC solution were administered into the duodenum through a previously inserted cannula. The effect of the test compound was expressed as the ratio of the integrated EMG discharge after administration relative to the value before administration.
# spinal reflex in cats = experiment: Effect on spinal reflex in cats; format: in vivo, cat
# Experimental: Adult cats weighing 3.0 to 4.5 kg each were used. After induction of anesthesia with ether, the animal was anesthetized by intravenous injection of 50 mg/kg of a-chloralose. After the trachea was cannulated, the animal was fixed on a stereotaxic apparatus, and the lumbosacral spinal cord was exposed by laminectomy from L3 to S1. The ventral roots of the right side were cut from L6 to S1 as distal as possible and the cut ends were ligated with cotton thread previously immersed in Ringer's solution. The exposed spinal cord was covered with warmed mineral oil and maintained at 37° C. The ventral root, either L7 or S1, was fixed on a pair of platinum wire electrodes. A pair of collar-type electrodes was implanted on the ipsilateral tibial nerve and the saphenous nerve, for stimulation. After completion of all these operations, the cat was immobilized with pancronium bromide (0.5 mg/kg, i.v.) and maintained by artificial respiration (40/minute). Recording was started at least 2 hours after withdrawal of ether anesthesia. A single square pulse (0.01 to 0.1 msecond pulse width, supramaximal intensity) was applied to the nerve at a frequency of 0.3 Hz from an electronic stimulator. […] In a similar manner to Experiment 2, the blood pressure, heart beat and body temperature of the animal were recorded and monitored. Compounds to be tested were also administered in a similar manner.
# thiopental anesthesia = experiment: Potentiation of thiopental anesthesia (mice); format: in vivo, mouse (ddY strain); conditions: for Anesthesia time: thiopental 30 mg/kg after one hour
# Experimental: In the test method, male adult mice of ddY strain each weighing 20 to 30 g were used as divided groups each made up of 5 to 7 mice. Test compounds suspended in 0.5% CMC solution were orally administered. After one hour, thiopental (30 mg/kg) was injected into the tail vein, and the time required for the mouse to recover the righting reflex was measured.
# [5] = test system: decerebrate rigidity in rats; experiment: Suppression of decerebrate rigidity in rats; format: in vivo, rat; remark: listed apart in the source
# [6] = test system: ischemia-induced neurological symptoms in the Mongolian Gerbil; experiment: Improvement of ischemia-induced neurological symptoms in the Mongolian gerbil caused by ligation of the bilateral common carotid arteries for 30 minutes; format: in vivo; conditions: 100 mg/kg i.p. upon recommencement of blood flow
# Experimental: The test animals employed were male adult Mongolian gerbils (16-20 weeks old). These were used in groups each consisting of from 10 to 20 animals. The bilateral common carotid arteries were occluded for 30 minutes under anesthesia with pentobarbital (30 mg/kg, intraperitoneally) and halothane (it was introduced to a mixture of 95% oxygen and 5% carbon dioxide at a concentration of 1.5% by volume) and then the occlusion was released to allow the blood to flow. The animal was then placed in a supine position, and we measured (1) the time taken from recommencement of blood flow until convulsions occurred and (2) the survival time. Observations to determine the onset time of convulsions and the survival time were continued for 6 and 7 hours, respectively, after recommencement of blood flow. […] The compound to be tested was suspended in a 0.5% w/v carboxymethyl cellulose (CMC) aqueous solution and administered intraperitoneally upon recommencement of blood flow in the common carotid arteries. On the other hand, a 0.5% CMC solution containing no test compound was administered likewise to a control group. Statistical analysis was carried out using the Mann-Whitney U-test between the control group and the test group.
# [7] = Rattus norvegicus, po, 30 mg/kg p.o., read-out: Maximum inhibition
# [8] = 30 mg/kg i.p. 30 minutes before ligation
# [9] = 100 mg/kg i.p. 30 minutes before ligation
# [10] = 100 mg/kg, administered as in Experiment 2
# [11] = 100 mg/kg, after administration
smiles,measurement,setting,value
"NC(=O)OCC(O)COc1noc2ccc(Cl)cc12 (stereo not drawn) [Example 3, 3-(3-Carbamoyloxy-2-hydroxypropoxy)-5-chloro-1,2-benzisoxazole]",Duration of the effect,[1]; 20 mg/kg p.o.,> 90 min
same,Onset of the effect,[1]; 20 mg/kg p.o.,5 min
same,Duration of the effect,[1]; 30 mg/kg p.o.,> 90 min
same,Onset of the effect,[1]; 30 mg/kg p.o.,5 min
same,Duration of the effect,[1]; 100 mg/kg p.o.,> 90 min
same,Onset of the effect,[1]; 100 mg/kg p.o.,5 min
same,inhibition in vivo at 20 mg/kg,"[1]; Rattus norvegicus, po, 20 mg/kg p.o., read-out: Maximum inhibition",60%
same,inhibition in vivo at 30 mg/kg,[1]; [7],90%
same,inhibition in vivo at 100 mg/kg,"[1]; Rattus norvegicus, po, 100 mg/kg p.o., read-out: Maximum inhibition",90%
same,"Onset time of convulsions and survival time, in words",[2]; 30 mg/kg,"prolonged onset time of convulsions, survival time significantly"
same,Onset time of convulsions,[2]; [8],106.5 ± 9.9 min
same,Recovery time of righting reflex,[2]; [8],7.1 ± 0.9 min
same,Survival rate,[2]; [8],80.0%
same,Survival time,[2]; [8],392.2 ± 21.2 min
same,"Onset time of convulsions and survival time, in words",[2]; 100 mg/kg,"prolonged onset time of convulsions, survival time significantly"
same,"Survival rate of ischemic animals, in words",[2]; 100 mg/kg,increased survival rate of ischemic animals
same,Onset time of convulsions,[2]; [9],306.9 ± 17.1 min
same,Recovery time of righting reflex,[2]; [9],36.3 ± 16.7 min
same,Survival rate,[2]; [9],100%
same,Survival time,[2]; [9],420.0 ± 0.0 min
same,Survival time,[3]; 30 mg/kg i.p.,213.0 ± 27.5 s
same,Survival time,[3]; 100 mg/kg i.p.,446.7 ± 36.9 s
O=c1cc(-c2ccccc2)on1CC(O)CN1CCOCC1 (stereo not drawn) [Compound 1a],Onset of the effect,[1]; 10 mg/kg i.d.,10 min
same,Duration of the effect,[1]; 30 mg/kg i.d.,> 180 min
same,Onset of the effect,[1]; 30 mg/kg i.d.,5 min
same,Duration of the effect,[1]; 30 mg/kg i.p.,> 120 min
same,Onset of the effect,[1]; 30 mg/kg i.p.,5 min
same,Duration of the effect,[1]; 30 mg/kg p.o.,> 160 min
same,Onset of the effect,[1]; 30 mg/kg p.o.,10 min
same,inhibition in vivo at 10 mg/kg,"[1]; Rattus norvegicus, intraduodenal, 10 mg/kg i.d., read-out: Maximum inhibition",20%
same,inhibition in vivo at 30 mg/kg,"[1]; Rattus norvegicus, ip, 30 mg/kg i.p., read-out: Maximum inhibition",60%
same,inhibition in vivo at 30 mg/kg,[1]; [7],95%
same,Inhibition of decerebrate rigidity,"[4]; 100 mg/kg intraduodenal, 5 minutes after administration",About 30%
same,Inhibition of decerebrate rigidity,"[4]; 100 mg/kg intraduodenal, 1 hour after administration",about 65%
same,Duration of inhibitory effects,"[4]; 100 mg/kg intraduodenal, throughout the observation period",≥ 2 h
same,Side effects and duration of action compared with eperisone hydrochloride,[4]; compared with eperisone hydrochloride,weaker in side effects and of longer action than eperisone hydrochloride
same,Duration of the effect on spinal reflexes,spinal reflex in cats; 100 mg/kg,about 2 hours
same,Monosynaptic reflex,spinal reflex in cats; [10],little affected
same,Polysynaptic reflex,spinal reflex in cats; [10],remarkably inhibited
same,Spino-bulbo-spinal reflex,spinal reflex in cats; [10],remarkably inhibited
same,Onset of the effect on spinal reflexes,spinal reflex in cats; [11],5 min
same,Time of maximum effect on spinal reflexes,spinal reflex in cats; [11],30 min
same,Mechanism shown by spinal reflexes,spinal reflex in cats; in vivo,interneuron blockers
same,Anesthesia time,thiopental anesthesia; 50 mg/kg p.o.,288.5 ± 20.1 s
same,Anesthesia time,thiopental anesthesia; 100 mg/kg p.o.,237.3 ± 25.5 s
same,"Drowsiness (the adverse effect), implied",thiopental anesthesia; compared with afloqualone,induce drowsiness (the adverse effect) less than afloqualone
same,"Prolongation of the duration of thiopental-induced anesthesia, in words",thiopental anesthesia; in comparison with eperisone hydrochloride,did not significantly prolong the duration of thiopental-induced anesthesia
same,Duration of the effect,[5]; 10 mg/kg i.d.,> 90 min
same,inhibition in vivo at 30 mg/kg,"[5]; Rattus norvegicus, intraduodenal, 30 mg/kg i.d., read-out: Maximum inhibition",60%
O=c1c(Cl)c(-c2ccccc2)on1CC(O)CN1CCOCC1 (stereo not drawn) [2a hydrochloride],Onset time of convulsions,[6],289.4 min
same,Survival time,[6],375.7 min
same,Onset time of convulsions,[2]; [8],99.8 ± 27.8 min
same,Recovery time of righting reflex,[2]; [8],8.0 ± 1.7 min
same,Survival time,[2]; [8],232.1 ± 35.8 min
same,Onset time of convulsions,[2]; [9],103.5 ± 16.2 min
same,Recovery time of righting reflex,[2]; [9],7.6 ± 1.7 min
same,Survival time,[2]; [9],233.0 ± 28.7 min
"Cl.OC(COc1cc(-c2ccccc2)on1)CN1CCOCC1 (stereo not drawn) [Example 20, 3-(2-Hydroxy-3-morpholinopropoxy)-5-phenylisoxazole hydrochloride]","Onset time of convulsions and survival time, in words",[2]; 30 mg/kg,"prolonged onset time of convulsions, survival time significantly"
same,Onset time of convulsions,[2]; [8],71.9 ± 9.3 min
same,Recovery time of righting reflex,[2]; [8],6.5 ± 0.6 min
same,Survival rate,[2]; [8],36.4%
same,Survival time,[2]; [8],295.9 ± 32.3 min
same,"Onset time of convulsions and survival time, in words",[2]; 100 mg/kg,"prolonged onset time of convulsions, survival time significantly"
same,Onset time of convulsions,[2]; [9],176.7 ± 25.8 min
same,Recovery time of righting reflex,[2]; [9],6.9 ± 0.9 min
same,Survival rate,[2]; [9],63.6%
same,Survival time,[2]; [9],371.9 ± 26.3 min
same,Survival time,[3]; 30 mg/kg i.p.,124.6 ± 15.4 s
same,Survival time,[3]; 100 mg/kg i.p.,349.5 ± 59.1 s
"NC(=O)OCC(O)COc1cc(-c2cccc(Cl)c2)on1 (stereo not drawn) [Example 4, 3-(3-Carbamoyloxy-2-hydroxypropoxy)-5-(m-chlorophenyl)isoxazole]",Onset time of convulsions,[6],233.9 min
same,Recovery time of righting reflex,[6],115.7 min
same,Survival time,[6],344.2 min
same,"Onset time of convulsions and survival time, in words",[2]; 100 mg/kg,"prolonged onset time of convulsions, survival time significantly"
same,Onset time of convulsions,[2]; [9],97.6 ± 18.0 min
same,Recovery time of righting reflex,[2]; [9],10.1 ± 1.8 min
same,Survival rate,[2]; [9],44.4%
same,Survival time,[2]; [9],322.4 ± 34.8 min
same,Survival time,[3]; 100 mg/kg i.p.,178.9 ± 15.0 s
